Assay results: PubChem BioAssay AID248 (DTP/NCI, 2004)
Values joined by “and” are separate entries in the source; they are usually repeats but may differ in a detail not shown here. Equal entries are not always repeated. Toxic doses and inconclusive results are not listed. No stated cut-off is given here; in the data, active means T/C of 150% or more; inactive means T/C below 125%.

Test system: L1210 leukemia ip in BDF1 mice, survival T/C
Test: NCI In Vivo Anticancer Drug Screen. Data for tumor model L1210 Leukemia (intraperitoneal) in B6D2F1 (BDF1) mice
Settings: endpoint: mean survival time, higher = longer survival
In short: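 Mice bearing the transplanted tumor received compound or vehicle. Survival of the treated group was divided by that of the vehicle-treated control group to give the ratio.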

[1] = dose: 100.0 mg/kg/injection, schedule: Q01DX009 (ip), vehicle: saline with Tween-80
[2] = dose: 100.0 mg/kg/injection, schedule: Q01DX009 (ip), vehicle: saline
[3] = dose: 100.0 mg/kg/injection, schedule: Q04DX003 (ip), vehicle: saline with Tween-80
[4] = dose: 200.0 mg/kg/injection, schedule: Q04DX003 (ip), vehicle: saline with Tween-80
[5] = dose: 400.0 mg/kg/injection, schedule: Q04DX003 (ip), vehicle: saline with Tween-80
[6] = dose: 100.0 mg/kg/injection, schedule: Q04DX003 (ip), vehicle: saline
[7] = dose: 200.0 mg/kg/injection, schedule: Q04DX003 (ip), vehicle: saline
[8] = dose: 400.0 mg/kg/injection, schedule: Q04DX003 (ip), vehicle: saline
[9] = dose: 100.0 mg/kg/injection, schedule: Q04DX003 (ip), vehicle: Klucel (hydroxypropylcellulose) (HPC)
[10] = dose: 200.0 mg/kg/injection, schedule: Q04DX003 (ip), vehicle: Klucel (hydroxypropylcellulose) (HPC)
[11] = dose: 400.0 mg/kg/injection, schedule: Q04DX003 (ip), vehicle: Klucel (hydroxypropylcellulose) (HPC)

Measured: T/C

CNC(=S)NC1CC(OC2CC(O)(C(C)=O)Cc3c(O)c4c(c(O)c32)C(=O)c2c(OC)cccc2C4=O)OC(C)C1O (stereo unspecified)
inactive: dose: 2.0 mg/kg/injection, schedule: Q04DX003 (ip), vehicle: water 107 % of control | dose: 3.12 mg/kg/injection, schedule: Q01DX009 (ip), vehicle: saline with Tween-80 115 % of control | dose: 4.0 mg/kg/injection, schedule: Q04DX003 (ip), vehicle: water 106 % of control | dose: 6.25 mg/kg/injection, schedule: Q01DX009 (ip), vehicle: saline with Tween-80 120 % of control | dose: 8.0 mg/kg/injection, schedule: Q04DX003 (ip), vehicle: water 107 % of control | dose: 12.5 mg/kg/injection, schedule: Q04DX003 (ip), vehicle: saline with Tween-80 108 % of control | dose: 16.0 mg/kg/injection, schedule: Q04DX003 (ip), vehicle: water 109 % of control and 110 % of control | dose: 25.0 mg/kg/injection, schedule: Q04DX003 (ip), vehicle: saline with Tween-80 124 % of control | dose: 32.0 mg/kg/injection, schedule: Q04DX003 (ip), vehicle: water 116 % of control | dose: 50.0 mg/kg/injection, schedule: Q04DX003 (ip), vehicle: saline with Tween-80 121 % of control | dose: 64.0 mg/kg/injection, schedule: Q04DX003 (ip), vehicle: water 110 % of control | dose: 125.0 micrograms/kg/injection, schedule: Q04DX003 (ip), vehicle: water 96 % of control | dose: 250.0 micrograms/kg/injection, schedule: Q04DX003 (ip), vehicle: water 103 % of control | dose: 500.0 micrograms/kg/injection, schedule: Q04DX003 (ip), vehicle: water 102 % of control | dose: 1000.0 micrograms/kg/injection, schedule: Q04DX003 (ip), vehicle: water 103 % of control | dose: 2000.0 micrograms/kg/injection, schedule: Q04DX003 (ip), vehicle: water 98 % of control

Fc1nc2nc(C(F)(F)F)[nH]c2nc1F
inactive: dose: 25.0 mg/kg/injection, schedule: Q01DX009 (ip), vehicle: saline with Tween-80 93 % of control | dose: 50.0 mg/kg/injection, schedule: Q01DX009 (ip), vehicle: saline with Tween-80 90 % of control | [1] 95 % of control | [2] 103 % of control | [3] 95 % of control | [4] 105 % of control | [5] 90 % of control

COC(=O)C(CCSC)NC(=O)C(NC(=O)c1cnc2ccccc2n1)C(C)C (stereo unspecified)
inactive: dose: 100.0 mg/kg/injection, schedule: Q01DX001 (ip), vehicle: carboxymethylcellulose (CMC) 91 % of control | dose: 200.0 mg/kg/injection, schedule: Q01DX001 (ip), vehicle: carboxymethylcellulose (CMC) 89 % of control | dose: 400.0 mg/kg/injection, schedule: Q01DX001 (ip), vehicle: carboxymethylcellulose (CMC) 96 % of control

O=C(O)CCN1C/C(=C\c2ccccc2)C(=O)C1=O
inactive: [6] 101 % of control | [7] 101 % of control | [8] 101 % of control

O=C(Nc1ccc(Cl)cc1C(F)(F)F)OCCOc1ccc(-c2ccccc2)cc1
inactive: [1] 98 % of control | dose: 200.0 mg/kg/injection, schedule: Q01DX009 (ip), vehicle: saline with Tween-80 96 % of control | dose: 400.0 mg/kg/injection, schedule: Q01DX009 (ip), vehicle: saline with Tween-80 96 % of control

CC(=O)CC(C[N+](=O)[O-])c1ccccc1 (stereo unspecified)
inactive: dose: 100.0 mg/kg/injection, schedule: Q01DX009 (ip), vehicle: Klucel (hydroxypropylcellulose) (HPC) 100 % of control | dose: 200.0 mg/kg/injection, schedule: Q01DX009 (ip), vehicle: Klucel (hydroxypropylcellulose) (HPC) 100 % of control | dose: 400.0 mg/kg/injection, schedule: Q01DX009 (ip), vehicle: Klucel (hydroxypropylcellulose) (HPC) 100 % of control

COc1ccc2c(CSc3nc(N)nc4nc[nH]c34)cc(=O)oc2c1
inactive: dose: 25.0 mg/kg/injection, schedule: Q04DX002 (ip), vehicle: Klucel (hydroxypropylcellulose) (HPC) 108 % of control | dose: 50.0 mg/kg/injection, schedule: Q04DX002 (ip), vehicle: Klucel (hydroxypropylcellulose) (HPC) 112 % of control | dose: 100.0 mg/kg/injection, schedule: Q04DX002 (ip), vehicle: Klucel (hydroxypropylcellulose) (HPC) 120 % of control | dose: 200.0 mg/kg/injection, schedule: Q04DX002 (ip), vehicle: Klucel (hydroxypropylcellulose) (HPC) 123 % of control | dose: 400.0 mg/kg/injection, schedule: Q04DX002 (ip), vehicle: Klucel (hydroxypropylcellulose) (HPC) 115 % of control

COc1cccc(C2NC(=O)CCC2N)c1OC (stereo unspecified)
inactive: dose: 100.0 mg/kg/injection, schedule: Q04DX002 (ip), vehicle: saline with Tween-80 105 % of control | dose: 200.0 mg/kg/injection, schedule: Q04DX002 (ip), vehicle: saline with Tween-80 102 % of control | dose: 400.0 mg/kg/injection, schedule: Q04DX002 (ip), vehicle: saline with Tween-80 97 % of control

CCOP(=O)(OCC)C(C)OC (stereo unspecified)
inactive: [2] 95 % of control | dose: 200.0 mg/kg/injection, schedule: Q01DX009 (ip), vehicle: saline 93 % of control | dose: 400.0 mg/kg/injection, schedule: Q01DX009 (ip), vehicle: saline 104 % of control

COc1ccc(C2NC(=O)NC2=O)cc1OC (stereo unspecified)
inactive: dose: 25.0 mg/kg/injection, schedule: Q01DX009 (ip), vehicle: saline sonified 98 % of control | dose: 50.0 mg/kg/injection, schedule: Q01DX001 (ip), vehicle: saline 102 % of control | dose: 50.0 mg/kg/injection, schedule: Q01DX009 (ip), vehicle: saline sonified 106 % of control | dose: 100.0 mg/kg/injection, schedule: Q01DX001 (ip), vehicle: saline 105 % of control | dose: 100.0 mg/kg/injection, schedule: Q01DX009 (ip), vehicle: saline sonified 101 % of control | [6] 95 % of control | dose: 200.0 mg/kg/injection, schedule: Q01DX001 (ip), vehicle: saline 105 % of control | [7] 103 % of control | dose: 400.0 mg/kg/injection, schedule: Q01DX001 (ip), vehicle: saline 105 % of control | [8] 97 % of control

CN(N)C(=O)Nc1ccccc1[N+](=O)[O-]
inactive: dose: 75.0 mg/kg/injection, schedule: Q01DX001 (ip), vehicle: carboxymethylcellulose (CMC) 96 % of control | dose: 150.0 mg/kg/injection, schedule: Q01DX001 (ip), vehicle: carboxymethylcellulose (CMC) 102 % of control

Cn1c(=O)c2c(ncn2CC(O)CO)n(C)c1=O (stereo unspecified) (tested in a mixture with another compound)
inactive: [3] 101 % of control | [4] 98 % of control | [5] 95 % of control

NC(=O)N/N=C(/CCC(=O)O)C(=O)O
inactive: dose: 100.0 mg/kg/injection, schedule: Q01DX001 (ip), vehicle: acetone 98 % of control | dose: 100.0 mg/kg/injection, schedule: Q01DX009 (ip), vehicle: acetone 92 % of control | [6] 89 % of control | dose: 200.0 mg/kg/injection, schedule: Q01DX001 (ip), vehicle: acetone 103 % of control | dose: 200.0 mg/kg/injection, schedule: Q01DX009 (ip), vehicle: acetone 100 % of control | [7] 93 % of control and 87 % of control | dose: 400.0 mg/kg/injection, schedule: Q01DX001 (ip), vehicle: acetone 95 % of control | dose: 400.0 mg/kg/injection, schedule: Q01DX009 (ip), vehicle: acetone 94 % of control | [8] 91 % of control

Cc1cccc(C)c1CNC(=O)NCCCl
inactive: [9] 98 % of control | [10] 95 % of control | [11] 104 % of control

O=C1C(NC(=O)C(Cl)Cl)=C(N2CC2)C(=O)c2ccccc21
inactive: [9] 98 % of control | [10] 102 % of control | [11] 98 % of control
